Values after ≈ are worked out from the molar mass of the structure shown.
Tests used:
[1] = aqueous kinetic solubility; assay type: physicochemical; settings: PBS aqueous buffer
[2] = in vivo pharmacokinetics, plasma and brain, single ip dose in male C57BL/6 mice; parameters: species or system mouse; settings: ip 30 mg/kg

## CN1C(=O)c2ccccc2[S@+]([O-])c2ccc(C(=O)NCCc3cccs3)cc21 [compound 65, 10-Methyl-11-oxo-N-(2-(thiophen-2-yl)ethyl)-10,11-dihydrodibenzo[b,f][1,4]thiazepine-8-carboxamide 5-(S)-Oxide]
[1]
  solubility kinetic: 46.5 µg/mL (≈ 113 µM)
[2]; brain, C57BL/6 mice
  time to reach brain Cmax: ≤ 15 min
[2]; male C57BL/6 mice, at 5 min after dosing, lasted for about 2 h
  behavioural observation after dosing: appeared less active
